# Source: patent US8828993B2, “Psychotropic agents having glutamate NMDA activity” (Ramot At Tel-Aviv University Ltd., priority 2006, dated 2014)
# Counter-ions that a name gives are not always drawn.
# Tests used:
# ICR male mice = test: Subchronic toxicity; assay type: in vivo
# Protocol: Subchronic toxicity was tested in ICR male mice. Animals (5 per group) received Compound 1 daily (10 and 20 mg/kg p.o). Animals were followed up for 7 days; weight, food intake and water intake were registered.
# [1] = system: amphetamine-induced hyperactivity in mice; test: Amphetamine-induced hyperactivity and stereotypic behavior; assay type: in vivo; conditions: ICR male mice
# Excerpt: The amphetamine-induced hyperactivity and motility is one of the most popular animal models for schizophrenia (Pouzet B, et al., Effects of the 5-HT(7) receptor antagonist SB-258741 in animal models for schizophrenia. Pharmacol Biochem Behav April; 71(4):655-665, 2002 and Geyer, et al., Animal behavior models of the mechanisms underlying antipsychotic atypicalicity, Progress in Neuro-Psychopharmacol & Biological Psychiatry, 27, 1071-79, 2003). Amphetamines are known to augment dopaminergic and noradrenergic neurotransmission by inducing catecholamine release and preventing catecholamine reuptake
# The experiment was conducted with ICR male mice placed in individual barrels. […] The locomotor activity, number of rearings and head movements was recorded every 15 minutes for 2 h.
# As stated above, the amphetamine-induced hyperactivity and motility is one of the most popular animal models for schizophrenia. The experiment was conducted with ICR male mice placed in individual barrels. Compound 1 (20 mg/kg) was administered p.o to the mice 1 hr prior to i.p. administration of amphetamine (2. mg/kg). The hyper-active behavior expressed by the number of climbings and rearings and the stereotypic behavior expressed by the number of head movements was recorded every 15 minutes over a period of 1 h.
# The effect of Compound 3 (12.5, 25 and 50 mg/kg, i.p.) on amphetamine-induced hyperactivity in Balb/c mice was also examined. Animals (6 per group) were injected with Compound 3 (12.5, 25 and 50 mg/kg) and 30 minutes later received amphetamine (2 mg/kg ip). After 30 minutes, animals were exposed to an open field test for a period of 20 minutes.
# [2] = system: MK-801-induced hyperactivity in mice; test: MK-801-induced hyperactivity in open field; assay type: in vivo
# Protocol: MK-801-Induced Stereotype Behavior in Rats (in Open Field)—
# MK-801 is an analogue of PCP which inhibits NMDA receptors and elicits hyperlocomotion and stereotypic behavior in rodents and is used as an animal model of schizophrenia (Stephen, et al., Topiramate antagonizes MK-801 in an animal model of schizophrenia, Eur. J. Pharmacol. 449, 2002, 121-5). For experimentation, naïve Balb/c mice were used. MK-801 (0.15 mg/kg i.p) was administered 40 minutes after Compound 1 (or any one of the other compounds of the invention) or a vehicle, and 20 minutes prior to placing the mouse in an open field.
# Animals placed in the open field were followed for 60 minutes and their distance moved, velocity, duration of immobility, and number of rearing events were registered using the Noldus system.
# As stated above, MK-801 inhibits NMDA receptors and elicits hyperlocomotion. Therefore, where an antagonism of the hyperactivity-induced by the MK-801 is observed upon administration of a compound of the invention, it is an indication as to the positive modulation of the NMDA activity. In other words, such a compound may be considered as useful in the treatment of schizophrenia.
# The effect of Compound 6 on the distance moved in Balb/c mice exposed to MK-801 ([…]) i.p. and to Compound 6 (up to 12.5 mg/kg, i.p.) administered 1 hr prior to MK-801 was also tested.
# As stated above, MK-801 (an NMDA receptor antagonist) is a widely accepted animal model for schizophrenia. The experiment was conducted with Balb/c male mice (Harlan Il), 6 per group. Compound 1 (50 mg/kg) was administered i.p. (1 hr before experimentation), to mice alone or combined with MK-801 (0.15 mg/kg, i.p.) administered 20 minutes prior to placing the mice individually in an open field for 60 minutes. The hyper-active behavior expressed by hyperlocomotion, velocity, strong mobility, number of rearing was evaluated using the Noldus system, each point represents the mean+/−6 determinations.
# mice = test: Catalepsy bar test; assay type: in vivo; conditions: doses of up to 50 mg/kg i.p., scored 90 minutes later
# Protocol: Catalepsy in mice and rats serves as a behavioral model for the manifestation of the extrapyramidal adverse effects of neuroleptics (Worm, et al., Dopamine-like activities of an aminopyridazine derivative, CM 30366. A behavioral study, Naunyn-Schmeideberg's Arch Pharmacol, 334, 246-52, 1986).
# Catalepsy in mice is evaluated using a bar test. The mice were placed in the middle of a steel rod situated between two platforms with their front paws resting on the bar. Animals were injected i.p. with a vehicle or Compound 1. Animals were scored 90 minutes later for the time it took each animal to reach the platform.
# human glioma U83 cell = conditions: 24 h
# Protocol: Determination of cell viability was performed in cells (10,000/well) using neutral red method. Absorption of neutral red by lysosomes caused coloring of living cells. Quantitative analysis was performed by colorimetric assay (ELISA reader at 550 nm).
# [3] = ICR male mice, 10 and 20 mg/kg p.o. daily, 7 days
Compound,animal general behavior (ICR male mice; [3]),body weight compared to control animals (ICR male mice; [3]),food intake compared to control animals (ICR male mice; [3]),tolerability (ICR male mice; [3]),water intake compared to control animals (ICR male mice; [3]),toxic effect (ICR male mice; up to 20 mg/kg given for 7 days),"rearing behavior, compound alone compared to control animals ([1]; 20 mg/kg p.o.)",increase in head movements induced by amphetamine (stereotypic behavior) ([1]; 20 mg/kg p.o. 1 hr prior to amphetamine 2 mg/kg i.p.),"hyperactivity induced by amphetamine (number of climbings and rearings) ([1]; 20 mg/kg p.o. 1 hr prior to amphetamine 2 mg/kg i.p., over 1 h)","vertical motility (number of rearings), compound alone ([2]; Balb/c male mice, 50 mg/kg i.p.)","inhibition of rearings presented by MK-801 ([2]; Balb/c male mice, 50 mg/kg i.p. combined with MK-801 0.15 mg/kg i.p.)","basal and MK-801-induced stimulation of horizontal motility (distance moved, velocity, strong mobility) ([2]; Balb/c male mice, 50 mg/kg i.p., MK-801 0.15 mg/kg i.p., open field 60 minutes)","hyperlocomotion effect of MK-801 ([2]; mice, 30 and 50 mg/kg i.p.)","increased frequency to the center of animals treated with MK-801 ([2]; mice, 30 and 50 mg/kg i.p.)","time spent in the center (zone 3), MK-801 treated ([2]; mice, 30 and 50 mg/kg i.p.)",catalepsy (mice),concentration toxic to human glioma cells (not toxic up to) (human glioma U83 cell),"motility (distance moved) of MK-801 treated mice ([2]; Balb/c mice, up to 12.5 mg/kg i.p. 1 hr prior to MK-801 (15 mg/kg) i.p.)"
"COC(=O)C(N)CN1CCN(C2=Nc3ccccc3Nc3sc(C)cc32)CC1 (stereo not drawn) [Compound 1, 2-amino-3-[4-(2-methyl-10H-thieno[2,3-b][1,5]benzodiazepin-4-yl)-piperazin-1-yl]-propionic acid, methyl ester hydrochloride salt]",no apparent difference,no difference,no difference,well tolerated,no difference,did not cause toxic effect,increased,did not attenuate,effective in antagonizing,markedly suppressed,increased,clear cut decrease,inhibited in a dose related manner,did not modify,increased,did not induce catalepsy,> 100 µM,–
"CNC(CN1CCN(C2=Nc3ccccc3Nc3sc(C)cc32)CC1)C(=O)OC (stereo not drawn) [Compound 6, 2-N-methylamino-3-[4-(2-methyl-10H-thieno[2,3-b][1.5]benzodiazepin-4-yl)-piperazin-1-yl]propionic acid, methyl ester trihydrochloride salt]",–,–,–,–,–,–,–,–,–,–,–,–,–,–,–,–,–,did not cause a consistent dose dependent effect
